Our source for the IC50 values is patent US20100298286A1, “Organic Compounds” (NOVARTIS AG, priority 2007, published 2010).

Common to all, as to type: biochemical
The target of test [1] is T1, PI3Kdelta (Homo sapiens, UniProt O00329).
T1 construct: for the full-length p110δ subunit were generated and fused by overlapping PCR; His tag (C); made in house; host or cells: baculovirus / Tn5 insect cells
The test is described as follows: PI3K KinaseGlo assay, PI3Kdelta. The note with it: 1 μM ATP, 10 nM enzyme, 30 mins. (In general: In Kinase-Glo more light means more ATP remaining.)

The target of test [2] is T2, PI3Kgamma (Homo sapiens, UniProt P48736, Q459R).
T2 construct: Constructs lacking the N-terminal 144 aa; His6 (C); made in house; host or cells: Tn5 insect cells; construct from Roger Williams lab (MRC LMB)
T2 sequence (P48736 with tags, fused parts or gaps Q459R): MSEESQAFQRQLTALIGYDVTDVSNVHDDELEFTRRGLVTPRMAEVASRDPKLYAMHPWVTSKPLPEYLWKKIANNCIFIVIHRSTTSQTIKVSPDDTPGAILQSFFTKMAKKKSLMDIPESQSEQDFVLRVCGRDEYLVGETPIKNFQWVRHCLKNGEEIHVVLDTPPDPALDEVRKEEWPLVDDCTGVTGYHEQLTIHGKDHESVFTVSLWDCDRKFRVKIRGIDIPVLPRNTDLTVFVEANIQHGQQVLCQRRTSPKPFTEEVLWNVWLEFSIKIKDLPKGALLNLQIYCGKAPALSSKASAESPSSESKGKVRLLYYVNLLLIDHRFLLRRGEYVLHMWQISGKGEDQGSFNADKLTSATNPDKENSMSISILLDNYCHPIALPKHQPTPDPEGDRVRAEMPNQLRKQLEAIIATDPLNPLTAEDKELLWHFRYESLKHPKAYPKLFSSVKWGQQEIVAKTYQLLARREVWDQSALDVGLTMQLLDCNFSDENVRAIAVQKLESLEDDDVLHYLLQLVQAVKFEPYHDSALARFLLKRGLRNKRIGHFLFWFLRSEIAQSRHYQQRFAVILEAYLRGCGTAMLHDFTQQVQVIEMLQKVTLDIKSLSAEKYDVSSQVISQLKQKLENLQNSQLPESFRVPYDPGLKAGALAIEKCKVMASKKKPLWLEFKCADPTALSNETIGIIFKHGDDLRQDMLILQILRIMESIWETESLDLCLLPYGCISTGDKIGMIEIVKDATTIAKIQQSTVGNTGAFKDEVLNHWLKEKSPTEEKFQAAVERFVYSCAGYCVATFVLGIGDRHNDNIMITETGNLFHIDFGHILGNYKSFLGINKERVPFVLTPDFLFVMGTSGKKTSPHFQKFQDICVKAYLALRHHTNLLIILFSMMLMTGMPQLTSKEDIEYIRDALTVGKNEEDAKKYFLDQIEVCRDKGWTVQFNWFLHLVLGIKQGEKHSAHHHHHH
Put plainly: PI3K KinaseGlo assay, PI3Kgamma. Conditions: 1 μM ATP, 150 nM enzyme, 90 mins. As for the experimental part:
PI3K KinaseGlo assay: […] of compound dilutions were dispensed onto black 384-well low volume Non Binding Styrene (NBS) plates (Costar Cat. No. NBS#3676). L-a-phosphatidylinositol (PI), provided as 10 mg/ml solution in methanol, was transferred into a glass tube and dried under nitrogen beam. It was then resuspended in 3% OctylGlucoside (OG) by vortexing and stored at 4° C. The KinaseGlo Luminescent Kinase Assay (Promega, Madison/WI, USA) is a homogeneous HTS method of measuring kinase activity by quantifying the amount of ATP remaining in solution following a kinase reaction.
5 μL of a mix of PI/OG with the PI3K subtype were added (Table 1). Kinase reactions were started by addition of 5 μl of ATP-mix containing in a final volume 10 μL 10 mM TRIS-HCl pH 7.5, 3 mM MgCl2, 50 mM NaCl, 0.05% CHAPS, 1 mM DTT and 1 μM ATP, and occurred at room temperature. Reactions were stopped with 10 μl of KinaseGlo and plates were read 10 mins later in a Synergy2 reader using an integration time of 0.1 seconds per well. […] The standard was used as a reference compound and included in all assay plates in the form of 16 dilution points in duplicate.
The PI3Kα, PI3Kβ and PI3Kδ constructs are fusion of p85α iSH2 domain and the respective p110 isoforms. The p85α fragment and p110 isoform genes were generated by PCR from first strand cDNA generated by RT-PCR from commercial RNA from placenta, testis and brain as described below. […]
The lysate was centrifuged at 45,000 g for 30 minutes, and the supernatant was loaded onto a pre-equilibrated IMAC column (3 mL resin/100 mL lysate). […] Pertinent fractions were analyzed by SDS-PAGE and pooled accordingly. […] Pertinent fractions were analyzed by SDS-PAGE and pooled accordingly. […]

The target in test [3] is T3, PI3Kbeta (Homo sapiens, UniProt P42338).
T3 construct: p85α iSH2 domain (fusion partner); His tag (C); made in house; host or cells: baculovirus / Tn5 insect cells
T3 sequence (P42338 with tags, fused parts or gaps limits assumed): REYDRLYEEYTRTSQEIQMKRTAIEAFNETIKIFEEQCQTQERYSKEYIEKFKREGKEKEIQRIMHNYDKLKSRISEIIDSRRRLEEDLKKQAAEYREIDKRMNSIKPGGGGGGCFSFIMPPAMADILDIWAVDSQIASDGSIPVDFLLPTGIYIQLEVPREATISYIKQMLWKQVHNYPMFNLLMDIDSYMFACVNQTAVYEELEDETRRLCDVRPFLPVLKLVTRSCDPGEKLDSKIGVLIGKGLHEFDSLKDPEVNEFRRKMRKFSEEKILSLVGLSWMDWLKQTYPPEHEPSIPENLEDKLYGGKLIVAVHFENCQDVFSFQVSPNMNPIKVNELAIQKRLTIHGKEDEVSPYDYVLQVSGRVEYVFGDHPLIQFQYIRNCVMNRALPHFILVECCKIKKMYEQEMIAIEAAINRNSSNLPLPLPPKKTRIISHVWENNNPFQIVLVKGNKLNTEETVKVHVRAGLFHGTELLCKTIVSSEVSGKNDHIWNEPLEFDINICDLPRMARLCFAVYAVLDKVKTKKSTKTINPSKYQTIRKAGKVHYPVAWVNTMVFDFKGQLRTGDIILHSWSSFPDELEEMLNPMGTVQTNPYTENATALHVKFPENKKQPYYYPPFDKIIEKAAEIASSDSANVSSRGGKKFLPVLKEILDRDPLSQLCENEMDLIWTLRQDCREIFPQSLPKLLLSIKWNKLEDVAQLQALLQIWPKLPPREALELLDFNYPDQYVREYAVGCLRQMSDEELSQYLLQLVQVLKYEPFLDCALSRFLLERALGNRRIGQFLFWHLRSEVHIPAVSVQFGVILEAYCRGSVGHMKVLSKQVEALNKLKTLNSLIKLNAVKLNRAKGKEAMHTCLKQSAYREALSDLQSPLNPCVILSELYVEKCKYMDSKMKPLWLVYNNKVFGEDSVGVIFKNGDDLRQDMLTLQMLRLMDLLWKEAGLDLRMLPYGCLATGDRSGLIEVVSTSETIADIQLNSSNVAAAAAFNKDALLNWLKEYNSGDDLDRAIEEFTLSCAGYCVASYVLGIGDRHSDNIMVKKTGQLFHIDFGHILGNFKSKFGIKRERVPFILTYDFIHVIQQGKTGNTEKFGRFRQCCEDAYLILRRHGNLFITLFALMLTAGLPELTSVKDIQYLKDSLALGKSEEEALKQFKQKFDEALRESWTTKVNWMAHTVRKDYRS
Put plainly: PI3K KinaseGlo assay, PI3Kbeta. Conditions: 1 μM ATP, 25 nM enzyme, 30 mins.

The target in test [4] is T4, PI3Kalpha (Homo sapiens, UniProt P42336).
T4 construct: His6 (C); made in house; host or cells: baculovirus / Tn5 insect cells
T4 sequence (P42336 with tags, fused parts or gaps): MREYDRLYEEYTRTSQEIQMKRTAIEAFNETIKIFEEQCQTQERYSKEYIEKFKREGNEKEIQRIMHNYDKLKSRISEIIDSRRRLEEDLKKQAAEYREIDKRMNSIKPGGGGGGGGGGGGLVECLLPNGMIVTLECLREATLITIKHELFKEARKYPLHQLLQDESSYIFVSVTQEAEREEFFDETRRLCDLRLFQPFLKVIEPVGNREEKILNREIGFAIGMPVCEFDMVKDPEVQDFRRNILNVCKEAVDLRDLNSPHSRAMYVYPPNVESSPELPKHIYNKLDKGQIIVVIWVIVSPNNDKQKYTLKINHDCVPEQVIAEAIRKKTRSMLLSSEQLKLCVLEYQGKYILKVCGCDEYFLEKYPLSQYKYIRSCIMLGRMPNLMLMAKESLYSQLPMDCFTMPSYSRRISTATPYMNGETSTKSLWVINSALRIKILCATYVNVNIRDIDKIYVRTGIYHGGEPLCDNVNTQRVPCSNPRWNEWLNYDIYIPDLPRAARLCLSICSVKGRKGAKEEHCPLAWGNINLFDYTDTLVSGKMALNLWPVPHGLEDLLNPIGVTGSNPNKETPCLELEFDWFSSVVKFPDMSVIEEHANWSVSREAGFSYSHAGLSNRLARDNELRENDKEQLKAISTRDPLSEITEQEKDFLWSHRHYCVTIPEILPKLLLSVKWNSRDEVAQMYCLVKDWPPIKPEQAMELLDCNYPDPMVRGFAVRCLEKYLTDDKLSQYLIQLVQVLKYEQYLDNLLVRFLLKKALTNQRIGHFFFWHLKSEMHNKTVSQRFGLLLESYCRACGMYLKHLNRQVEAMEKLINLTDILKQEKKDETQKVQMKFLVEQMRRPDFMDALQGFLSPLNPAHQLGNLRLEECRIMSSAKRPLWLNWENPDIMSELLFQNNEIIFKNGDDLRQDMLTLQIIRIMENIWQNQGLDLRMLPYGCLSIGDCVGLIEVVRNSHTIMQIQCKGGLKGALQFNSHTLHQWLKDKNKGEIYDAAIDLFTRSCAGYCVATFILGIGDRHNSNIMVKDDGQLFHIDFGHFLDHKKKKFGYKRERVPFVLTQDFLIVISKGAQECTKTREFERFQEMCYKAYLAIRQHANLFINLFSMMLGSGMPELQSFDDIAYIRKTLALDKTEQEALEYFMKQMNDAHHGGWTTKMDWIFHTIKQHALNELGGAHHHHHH
Put plainly: PI3K KinaseGlo assay, PI3Kalpha. The note with it: 1 μM ATP, 10 nM enzyme, 30 mins.

T1 sequence (O00329 with tags, fused parts or gaps): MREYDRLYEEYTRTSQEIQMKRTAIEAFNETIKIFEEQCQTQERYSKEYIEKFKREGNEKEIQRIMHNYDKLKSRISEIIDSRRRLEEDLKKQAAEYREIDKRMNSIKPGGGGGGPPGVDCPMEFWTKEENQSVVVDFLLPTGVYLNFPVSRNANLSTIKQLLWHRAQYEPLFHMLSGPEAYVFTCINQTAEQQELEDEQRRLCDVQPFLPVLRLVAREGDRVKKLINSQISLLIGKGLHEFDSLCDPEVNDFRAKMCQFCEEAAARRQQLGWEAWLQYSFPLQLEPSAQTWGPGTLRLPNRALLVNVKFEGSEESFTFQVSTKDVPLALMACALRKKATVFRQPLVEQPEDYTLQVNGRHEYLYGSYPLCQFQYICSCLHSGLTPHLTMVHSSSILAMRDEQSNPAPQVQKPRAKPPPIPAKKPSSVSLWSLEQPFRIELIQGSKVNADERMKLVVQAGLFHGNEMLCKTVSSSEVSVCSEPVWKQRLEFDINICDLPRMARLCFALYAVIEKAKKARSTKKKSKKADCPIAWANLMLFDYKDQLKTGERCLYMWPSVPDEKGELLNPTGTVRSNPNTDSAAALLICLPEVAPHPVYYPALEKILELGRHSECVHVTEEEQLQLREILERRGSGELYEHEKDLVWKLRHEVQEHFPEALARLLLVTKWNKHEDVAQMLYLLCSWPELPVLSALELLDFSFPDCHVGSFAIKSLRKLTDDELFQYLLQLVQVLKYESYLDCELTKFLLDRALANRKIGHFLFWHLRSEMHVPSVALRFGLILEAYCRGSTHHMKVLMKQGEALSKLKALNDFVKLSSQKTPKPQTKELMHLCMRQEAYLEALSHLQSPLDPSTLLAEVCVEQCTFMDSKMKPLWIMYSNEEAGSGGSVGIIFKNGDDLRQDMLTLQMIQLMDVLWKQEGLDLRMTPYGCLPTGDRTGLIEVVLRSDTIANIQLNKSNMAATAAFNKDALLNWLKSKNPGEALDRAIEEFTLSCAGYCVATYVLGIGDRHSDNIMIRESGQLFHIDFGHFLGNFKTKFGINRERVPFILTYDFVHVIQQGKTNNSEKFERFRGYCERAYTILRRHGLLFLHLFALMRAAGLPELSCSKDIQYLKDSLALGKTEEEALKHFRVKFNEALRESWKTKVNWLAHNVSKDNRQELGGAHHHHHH

The IC50 is the concentration needed to halve the response being measured. With `Cc1nc(NC(=O)N2CCC2C(N)=O)sc1-c1csc(C(C)(C)C)n1` (stereo not drawn) [Example 13, Azetidine-1,2-dicarboxylic acid 2-amide 1-[(2-tert-butyl-4′-methyl-[4,5]bithiazolyl-2′-yl)-amide]], the IC50 is 0.622 µM in test [1], 2.51 µM in test [2], 6.86 µM in test [3] and 0.054 µM in test [4].

Take `Cc1nc(NC(=O)N2CCC[C@H]2C(N)=O)sc1-c1csc(N2CC3CCC(CC3)C2)n1` [Example 23, (S)-Pyrrolidine-1,2-dicarboxylic acid 2-amide 1-{[2-(3-aza-bicyclo[3.2.2]non-3-yl)-4′-methyl-[4,5]bithiazolyl-2′-yl]-amide}]: the IC50 was 2.37 µM in test [1], 1.64 µM in test [2], 8.47 µM in test [3] and 0.331 µM in test [4].

Turning to `Cc1nc(NC(=O)N2CCC[C@@]2(C)C(N)=O)sc1-c1csc(CC2CC2)n1` [Example 49, (S)-2-Methyl-pyrrolidine-1,2-dicarboxylic acid 2-amide 1-[(2-cyclopropylmethyl-4′-methyl-[4,5]bithiazolyl-2′-yl)-amide]], the concentration for half-maximal inhibition (IC50) was 1.26 µM in test [1], 0.928 µM in test [2], 0.885 µM in test [3] and 0.078 µM in test [4].
